Test results: PubChem BioAssay AID1259407 (Chemical Carcinogenesis Research Information System (CCRIS), 2018)
Activity calls are given as the source filed them. How the calls were made is not given here.

Test system: CCRIS mutagenicity, Ames/micronucleus/aberration tests
Test: CCRIS mutagenicity studies
[1] = Test System: AMES SALMONELLA TYPHIMURIUM, Strain/Indicator: TA98, Metabolic Activation: NONE, Method: PREINCUBATION
[2] = Test System: AMES SALMONELLA TYPHIMURIUM, Strain/Indicator: TA100, Metabolic Activation: NONE, Method: PREINCUBATION
[3] = Test System: AMES SALMONELLA TYPHIMURIUM, Strain/Indicator: TA98, Metabolic Activation: NONE, Method: STANDARD PLATE
[4] = Test System: AMES SALMONELLA TYPHIMURIUM, Strain/Indicator: TA100, Metabolic Activation: NONE, Method: STANDARD PLATE

CN(C)c1ccc(N)cc1
mutagenic call (End Point: IN VITRO CHROMOSOMAL ABERRATIONS, Test System: CHINESE HAMSTER LUNG CELLS (CHL), Metabolic Activation: NONE): active; positive (structural changes) | mutagenic call (End Point: IN VITRO CHROMOSOMAL ABERRATIONS, Test System: CHINESE HAMSTER LUNG CELLS (CHL), Metabolic Activation: RAT, LIVER, S-9, KC-400): inactive; negative; authors describe results at highest dose as equivocal | mutagenic call (End Point: IN VITRO CHROMOSOMAL ABERRATIONS, Test System: CHINESE HAMSTER OVARY CELLS (CHO), Metabolic Activation: NONE): inactive; positive at highest dose; authors describe overall results as negative | mutagenic call (End Point: IN VITRO CHROMOSOMAL ABERRATIONS, Test System: CHINESE HAMSTER OVARY CELLS (CHO), Metabolic Activation: RAT, LIVER, S-9, AROCLOR 1254): inactive; negative | mutagenic call (Test System: AMES SALMONELLA TYPHIMURIUM, Strain/Indicator: TA98, Metabolic Activation: HAMSTER, LIVER, S-9, AROCLOR 1254 (30%), Method: PREINCUBATION): active; positive | mutagenic call [1]: inactive; negative | mutagenic call (Test System: AMES SALMONELLA TYPHIMURIUM, Strain/Indicator: TA98, Metabolic Activation: RAT, LIVER, S-9, AROCLOR 1254 (30%), Method: PREINCUBATION): active; positive | mutagenic call (Test System: AMES SALMONELLA TYPHIMURIUM, Strain/Indicator: TA100, Metabolic Activation: HAMSTER, LIVER, S-9, AROCLOR 1254 (30%), Method: PREINCUBATION): inactive; negative | mutagenic call [2]: inactive; negative | mutagenic call (Test System: AMES SALMONELLA TYPHIMURIUM, Strain/Indicator: TA100, Metabolic Activation: RAT, LIVER, S-9, AROCLOR 1254 (30%), Method: PREINCUBATION): inactive; negative | mutagenic call (Test System: Ames Salmonella typhimurium, Strain/Indicator: TA102, Metabolic Activation: None, Method: Preincubation): inactive; negative | mutagenic call (Test System: Ames Salmonella typhimurium, Strain/Indicator: TA102, Metabolic Activation: Rat, Liver, S9, Aroclor 1254, Method: Preincubation): active; positive | mutagenic call (Test System: Ames Salmonella typhimurium, Strain/Indicator: TA104, Metabolic Activation: None, Method: Preincubation): inactive; negative | mutagenic call (Test System: Ames Salmonella typhimurium, Strain/Indicator: TA104, Metabolic Activation: Rat, Liver, S9, Aroclor 1254, Method: Preincubation): active; positive

Nc1cccc2c1-c1ccccc1C2
mutagenic call (Test System: AMES SALMONELLA TYPHIMURIUM, Strain/Indicator: TA98, Metabolic Activation: RAT, LIVER, S-9, AROCLOR 1254 (2 OR 4%), Method: STANDARD PLATE): active; positive | mutagenic call (Test System: AMES SALMONELLA TYPHIMURIUM, Strain/Indicator: TA100, Metabolic Activation: RAT, LIVER, S-9, AROCLOR 1254 (2%), Method: STANDARD PLATE): active; positive | mutagenic call (Test System: AMES SALMONELLA TYPHIMURIUM, Strain/Indicator: TA1535, Metabolic Activation: RAT, LIVER, S-9, AROCLOR 1254 (2%), Method: STANDARD PLATE): inactive; negative | mutagenic call (Test System: AMES SALMONELLA TYPHIMURIUM, Strain/Indicator: TA1537, Metabolic Activation: RAT, LIVER, S-9, AROCLOR 1254 (2%), Method: STANDARD PLATE): inactive; negative

Cc1c2ccccc2cc2ccccc12
mutagenic call (Test System: AMES SALMONELLA TYPHIMURIUM, Strain/Indicator: TA97, Metabolic Activation: NONE, Method: STANDARD PLATE): inactive; negative | mutagenic call (Test System: AMES SALMONELLA TYPHIMURIUM, Strain/Indicator: TA97, Metabolic Activation: RAT, LIVER, S-9, PCB, Method: STANDARD PLATE): active; positive | mutagenic call [3]: inactive; negative | mutagenic call (Test System: AMES SALMONELLA TYPHIMURIUM, Strain/Indicator: TA98, Metabolic Activation: RAT, LIVER, S-9, AROCLOR 1254, Method: STANDARD PLATE): active; positive | mutagenic call (Test System: AMES SALMONELLA TYPHIMURIUM, Strain/Indicator: TA98, Metabolic Activation: RAT, LIVER, S-9, PCB, Method: STANDARD PLATE): active; positive | mutagenic call [4]: inactive; negative | mutagenic call (Test System: AMES SALMONELLA TYPHIMURIUM, Strain/Indicator: TA100, Metabolic Activation: RAT, LIVER, S-9, AROCLOR 1254, Method: STANDARD PLATE): inactive; negative | mutagenic call (Test System: AMES SALMONELLA TYPHIMURIUM, Strain/Indicator: TA100, Metabolic Activation: RAT, LIVER, S-9, PCB, Method: STANDARD PLATE): active; positive

Cc1c2ccccc2cc2c3c(ccc12)C(=O)C(=O)C=C3
mutagenic call (Test System: AMES SALMONELLA TYPHIMURIUM, Strain/Indicator: TA97A, Metabolic Activation: NONE, Method: PREINCUBATION): active; positive | mutagenic call [1]: inactive; negative | mutagenic call [2]: inactive; negative | mutagenic call (Test System: AMES SALMONELLA TYPHIMURIUM, Strain/Indicator: TA102, Metabolic Activation: NONE, Method: PREINCUBATION): inactive; negative | mutagenic call (Test System: AMES SALMONELLA TYPHIMURIUM, Strain/Indicator: TA104, Metabolic Activation: NONE, Method: PREINCUBATION): inactive; negative

O=[N+]([O-])c1cccc(CO)c1
mutagenic call [1]: inactive; negative | mutagenic call [2]: inactive; negative | mutagenic call (Test System: AMES SALMONELLA TYPHIMURIUM, Strain/Indicator: TA100, Metabolic Activation: RAT, LIVER, S-9, AROCLOR 1254, Method: PREINCUBATION): inactive; negative

CC[C@@]1(O)C[C@H](O[C@H]2C[C@H](N(C)C)[C@H](O[C@H]3C[C@H](O)[C@H](O)[C@H](C)O3)C(C)O2)c2c(cc3c(c2O)C(=O)c2c(O)ccc(O)c2C3=O)[C@H]1C(=O)OC (stereo partly drawn)
mutagenic call (Test System: AMES SALMONELLA TYPHIMURIUM, Strain/Indicator: TA102, Metabolic Activation: NONE, Method: STANDARD PLATE): active; positive | mutagenic call (Test System: AMES SALMONELLA TYPHIMURIUM, Strain/Indicator: TA104, Metabolic Activation: NONE, Method: STANDARD PLATE): active; positive

COc1ccc(-c2nc(-c3ccccc3)c(-c3ccccc3)[nH]2)cc1OC
mutagenic call [3]: active; positive | mutagenic call [4]: active; positive | mutagenic call (Test System: AMES SALMONELLA TYPHIMURIUM, Strain/Indicator: TA100, Metabolic Activation: RAT LIVER S-9, 3-METHYLCHOLANTHRENE, SODIUM PHENOBARBITAL, Method: STANDARD PLATE): active; positive

CCOC(=O)C(=NNc1ccc(-c2ccc(NN=C(C(=O)OCC)C(=O)OCC)c(OC)c2)cc1OC)C(=O)OCC
mutagenic call (Test System: AMES SALMONELLA TYPHIMURIUM, Strain/Indicator: TA98, Metabolic Activation: HAMSTER, LIVER, S-9, Method: PREINCUBATION (PRIVAL METHOD)): inactive; negative

CCCCCOC(=O)C=Cc1ccc([N+](=O)[O-])o1
mutagenic call [1]: active; positive

Nc1cc(Cl)c([N+](=O)[O-])cc1O
mutagenic call (Test System: AMES SALMONELLA TYPHIMURIUM, Strain/Indicator: TA97, Metabolic Activation: HAMSTER, LIVER, S-9, AROCLOR 1254 (10%), Method: PREINCUBATION): active; positive | mutagenic call (Test System: AMES SALMONELLA TYPHIMURIUM, Strain/Indicator: TA97, Metabolic Activation: NONE, Method: PREINCUBATION): active; positive | mutagenic call (Test System: AMES SALMONELLA TYPHIMURIUM, Strain/Indicator: TA97, Metabolic Activation: RAT, LIVER, S-9, AROCLOR 1254 (10%), Method: PREINCUBATION): active; positive | mutagenic call (Test System: AMES SALMONELLA TYPHIMURIUM, Strain/Indicator: TA98, Metabolic Activation: HAMSTER, LIVER, S-9, AROCLOR 1254 (10%), Method: PREINCUBATION): active; positive | mutagenic call [1]: active; positive | mutagenic call (Test System: AMES SALMONELLA TYPHIMURIUM, Strain/Indicator: TA98, Metabolic Activation: RAT, LIVER, S-9, AROCLOR 1254 (10%), Method: PREINCUBATION): active; positive | mutagenic call (Test System: AMES SALMONELLA TYPHIMURIUM, Strain/Indicator: TA100, Metabolic Activation: HAMSTER, LIVER, S-9, AROCLOR 1254 (10%), Method: PREINCUBATION): active; positive | mutagenic call [2]: inactive; negative | mutagenic call (Test System: AMES SALMONELLA TYPHIMURIUM, Strain/Indicator: TA100, Metabolic Activation: RAT, LIVER, S-9, AROCLOR 1254 (10%), Method: PREINCUBATION): inactive; negative | mutagenic call (Test System: AMES SALMONELLA TYPHIMURIUM, Strain/Indicator: TA1535, Metabolic Activation: HAMSTER, LIVER, S-9, AROCLOR 1254 (10%), Method: PREINCUBATION): inactive; negative | mutagenic call (Test System: AMES SALMONELLA TYPHIMURIUM, Strain/Indicator: TA1535, Metabolic Activation: NONE, Method: PREINCUBATION): inactive; negative | mutagenic call (Test System: AMES SALMONELLA TYPHIMURIUM, Strain/Indicator: TA1535, Metabolic Activation: RAT, LIVER, S-9, AROCLOR 1254 (10%), Method: PREINCUBATION): inactive; negative
